From BigSolDB 2.1

O=C1CCC(=O)O1
solubility (mole fraction)
Conditions	278.15 K	283.15 K	288.15 K	293.15 K	298.15 K	303.15 K
in acetone	0.0721	0.0863	0.103	0.121	0.143	0.166
in acetonitrile	0.114	0.121	0.129	0.137	0.146	0.156
in ethyl acetate	0.0485	0.0544	0.0611	0.0684	0.0771	0.0853
in isopropanol	0.0502	0.0562	0.0632	0.0705	0.0793	0.0889
